Laboratory results as given in ChEMBL document CHEMBL2321848, “Optimization of benzyloxazoles as non-nucleoside inhibitors of HIV-1 reverse transcriptase to enhance Y181C potency” (Bioorg Med Chem Lett, 2013).

Tests used:
[1] = system: Human immunodeficiency virus 1; experiment: Antiviral activity against multidrug resistant HIV1 IIIB containing reverse transcriptase K103N and Y181C mutation infected in human MT2 cells assessed as cytoprotection from infection by MTT colorimetric method; type: functional, organism-based
MT2 = experiment: (§1) Cytotoxicity in human MT2 cells assessed as inhibition of cell growth; type: cell-based; conditions: mt2
[2] = system: Human immunodeficiency virus 1; experiment: Antiviral activity against multidrug resistant HIV1 IIIB containing reverse transcriptase Y181C mutation infected in human MT2 cells assessed as cytoprotection from infection by MTT colorimetric method; type: functional, organism-based
[3] = system: Human immunodeficiency virus 1; experiment: microbe, parasite or virus in culture; conditions: Human immunodeficiency virus 1, IIIB, MT2
Description: Antiviral activity against multidrug resistant HIV1 IIIB containing reverse transcriptase infected in human MT2 cells assessed as cytoprotection from infection by MTT colorimetric method

[4] = Octanol-water partition coefficient, log P of the compound; type: physicochemical
[5] = as §1; type: cell-based; conditions: MT2 cells
[6] = Human immunodeficiency virus 1, IIIB, MT2, read-out: EC50

SMILES	EC50 ([1]; mt2)	CC50 (MT2) [µM]	EC50 [2, 6] [µM]	EC50 [3] [µM]	EC50 [1, 6] [µM]	logP [4]	EC50 ([2]; mt2)	CC50 [5] [µM]
N#Cc1ccc(Nc2ncc(Cc3c(F)cccc3F)o2)cc1	Not Active	–	–	–	–	–	–	–
N#Cc1ccc(Nc2ncc(Cc3c(F)cc(F)cc3F)o2)cc1Cl	Not Active	7	0.91	0.0091	–	–	–	–
Cc1cc(F)c(Cc2cnc(Nc3ccc(C#N)c(Cl)c3)o2)c(F)c1	–	31	0.21	0.011	7.2	–	–	–
CCc1cc(F)c(Cc2cnc(Nc3ccc(C#N)c(Cl)c3)o2)c(F)c1	–	10	0.0069	0.0013	0.21	–	–	–
CC(C)c1cc(F)c(Cc2cnc(Nc3ccc(C#N)c(Cl)c3)o2)c(F)c1	–	5	0.0072	0.0052	0.12	3.7	–	–
N#Cc1ccc(Nc2ncc(Cc3c(F)cc(C4CC4)cc3F)o2)cc1Cl	–	65	1.5	0.024	10.7	3.3	–	–
N#Cc1ccc(Nc2ncc(Cc3c(F)cc(CC4CC4)cc3F)o2)cc1Cl	–	29	1.2	0.068	15	–	–	–
CCOc1cc(F)c(Cc2cnc(Nc3ccc(C#N)c(Cl)c3)o2)c(F)c1	–	15	0.048	0.028	0.75	–	–	–
COCc1cc(F)c(Cc2cnc(Nc3ccc(C#N)c(Cl)c3)o2)c(F)c1	–	15	0.69	0.0036	6.3	–	–	–
CCc1cc(F)c(Cc2cnc(Nc3ccc(Oc4cccnc4)c(Cl)c3)o2)c(F)c1	–	5	0.06	0.005	0.8	–	–	–
CC(C)(C)c1cc(Cl)c(Cc2cnc(Nc3ccc(C#N)c(Cl)c3)o2)c(Cl)c1	Not Active	6	–	1.3	–	–	Not Active	–
CCC(C)c1cc(F)c(Cc2cnc(Nc3ccc(C#N)c(Cl)c3)o2)c(F)c1 (racemic)	–	40	0.15	0.12	2.8	–	–	–
Cc1ccnc2c1NC(=O)c1cccnc1N2C1CC1 [NEVIRAPINE]	Not Active	–	–	–	–	–	Not Active	> 100
